{"source": "paper PMC5630390", "about": "“7-ketocholesterol and 27-hydroxycholesterol decreased doxorubicin sensitivity in breast cancer cells: estrogenic activity and mTOR pathway” (Oncotarget, 2017)", "molecular_target": "T1, ERα (Homo sapiens, UniProt P03372)", "T1 construct": "gene ESR1; recombinant human ERα expressed in yeast with a LacZ reporter construct", "T1 sequence (P03372 1-595)": "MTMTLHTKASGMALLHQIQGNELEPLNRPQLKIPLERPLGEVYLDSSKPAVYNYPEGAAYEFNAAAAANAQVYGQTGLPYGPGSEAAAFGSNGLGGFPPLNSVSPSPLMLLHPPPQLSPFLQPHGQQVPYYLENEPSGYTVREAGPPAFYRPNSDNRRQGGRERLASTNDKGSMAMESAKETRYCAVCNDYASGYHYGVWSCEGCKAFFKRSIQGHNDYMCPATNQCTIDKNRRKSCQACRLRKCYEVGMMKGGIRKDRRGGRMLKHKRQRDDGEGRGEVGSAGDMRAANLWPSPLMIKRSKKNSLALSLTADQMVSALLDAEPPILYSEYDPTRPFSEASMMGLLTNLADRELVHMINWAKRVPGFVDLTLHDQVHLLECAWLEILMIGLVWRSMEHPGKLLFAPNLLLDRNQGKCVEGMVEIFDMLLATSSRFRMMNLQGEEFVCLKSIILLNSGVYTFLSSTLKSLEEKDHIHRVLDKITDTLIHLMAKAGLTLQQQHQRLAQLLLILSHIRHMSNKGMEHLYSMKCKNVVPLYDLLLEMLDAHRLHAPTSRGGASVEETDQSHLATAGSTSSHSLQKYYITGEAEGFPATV", "test": "yeast ER reporter (YES) assay, agonist mode, […] h; weak, […] stimulation at […]", "format": "cell-based", "data": [{"smiles": "CC(C)CCC[C@@H](C)[C@H]1CC[C@H]2[C@@H]3C(=O)C=C4C[C@@H](O)CC[C@]4(C)[C@H]3CC[C@]12C", "note": "[7-KC, 7-ketocholesterol]", "values": [{"measurement": "activation at 50 µM", "value": 14, "unit": "%"}]}]}
